According to patent publication US10045983B2, “Heteroaryl pyridone and aza-pyrodine compounds” (Genentech, Inc., priority 2011, dated 2018):
Like-named read-outs stand apart in the source and are kept apart here.

Experiment: CD69 Whole Blood Assay (CD69 Hu Blood FACS)
Format: cell-based, human
Settings: Lymphocyte, human whole blood, anti-IgM activated B lymphocytes, FACS, IC70
In short: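 Human whole blood stimulated by crosslinking surface IgM with goat F(ab′)2 anti-human IgM; inhibition of CD69 expression on B lymphocytes measured by flow cytometry.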

[1] = Table 2 (unit inferred), read-out: CD69 Hu Blood FACS (IC70)
[2] = Table 1, read-out: CD69 Hu Blood FACS IC70

| SMILES | IC70 [1] | IC70 [2] |
| --- | --- | --- |
| Cn1nc(-c2ccnc(-n3ncc4c5c(sc4c3=O)CCCC5)c2CO)cc(Nc2ccc(C(=O)N3CCOCC3)cn2)c1=O [Example 258, 3-[3-(hydroxymethyl)-4-[1-methyl-5-[[5-(morpholine-4-carbonyl)-2-pyridyl]amino]-6-oxo-pyridazin-3-yl]-2-pyridyl]-6,7,8,9-tetrahydrobenzothiopheno[2,3-d]pyridazin-4-one] | 646 nM | – |
| Cn1cc(-c2ccnc(N3CCn4c(cc5c4CCCC5)C3=O)c2CO)cc(Nc2cnccn2)c1=O [Example 162, 2-[3′-Hydroxymethyl-1-methyl-6-oxo-5-(pyrazin-2-ylamino)-1,6-dihydro-[3,4′]bipyridinyl-2′-yl]-3,4,6,7,8,9-hexahydro-2H-pyrazino[1,2-a]indol-1-one] | – | 434 nM |
| COc1ccc(Nc2cc(-c3ccnc(N4CCn5c(cc6c5CC(C)(C)C6)C4=O)c3CO)cn(C)c2=O)nc1 [Example 277, 3-[3-(hydroxymethyl)-4-[5-[(5-methoxy-2-pyridyl)amino]-1-methyl-6-oxo-3-pyridyl]-2-pyridyl]-7,7-dimethyl-1,2,6,8-tetrahydrocyclopenta[3,4]pyrrolo[3,5-b]pyrazin-4-one] | 339 nM | – |
| Cn1nc(Nc2cc(-c3ccnc(N4CCn5c(cc6c5CC(C)(C)C6)C4=O)c3CO)cn(C)c2=O)cc1C(=O)N1CCCC1 [Example 315, 3-[3-(hydroxymethyl)-4-[1-methyl-5-[[1-methyl-5-(pyrrolidine-1-carbonyl)pyrazol-3-yl]amino]-6-oxo-3-pyridyl]-2-pyridyl]-7,7-dimethyl-1,2,6,8-tetrahydrocyclopenta[3,4]pyrrolo[3,5-b]pyrazin-4-one] | 15 nM | – |
| Cc1cc(Nc2cc(-c3ccnc(N4CCn5c(cc6c5CC(C)(C)C6)C4=O)c3CO)cn(C)c2=O)n[nH]1 [Example 260, 3-[3-(hydroxymethyl)-4-[1-methyl-5-[(5-methyl-1H-pyrazol-3-yl)amino]-6-oxo-3-pyridyl]-2-pyridyl]-7,7-dimethyl-1,2,6,8-tetrahydrocyclopenta[3,4]pyrrolo[3,5-b]pyrazin-4-one] | 60.6 nM | – |
| Cn1cc(-c2ccnc(N3CCn4c(cc5c4CC(C)(C)C5)C3=O)c2CO)cc(Nc2ccon2)c1=O [Example 286, 3-[3-(hydroxymethyl)-4-[5-(isoxazol-3-ylamino)-1-methyl-6-oxo-3-pyridyl]-2-pyridyl]-7,7-dimethyl-1,2,6,8-tetrahydrocyclopenta[3,4]pyrrolo[3,5-b]pyrazin-4-one] | 167 nM | – |
| Cc1cc(Nc2cc(-c3ccnc(-n4ccc5c(cc6n5CCCC6)c4=O)c3CO)cn(C)c2=O)nn1C [Example 246, 2-[4-[5-[(1,5-dimethylpyrazol-3-yl)amino]-1-methyl-6-oxo-3-pyridyl]-3-(hydroxymethyl)-2-pyridyl]-6,7,8,9-tetrahydropyrido[3,4-b]indolizin-1-one] | 1700 nM | – |
| COCCN1CCn2nc(Nc3cc(-c4ccnc(N5CCn6c(cc7c6CC(C)(C)C7)C5=O)c4CO)c(C)n(C)c3=O)cc2C1 [Example 327, 3-[3-(hydroxymethyl)-4-[5-[[5-(2-methoxyethyl)-6,7-dihydro-4H-pyrazolo[1,5-a]pyrazin-2-yl]amino]-1,2-dimethyl-6-oxo-3-pyridyl]-2-pyridyl]-7,7-dimethyl-1,2,6,8-tetrahydrocyclopenta[3,4]pyrrolo[3,5-b]pyrazin-4-one] | 2200 nM | – |
| Cc1nn(C)c2cnc(Nc3cc(-c4ccnc(N5CCn6c(cc7c6CC(C)(C)C7)C5=O)c4CO)cn(C)c3=O)cc12 [Example 325, 3-[4-[5-[(1,3-dimethylpyrazolo[3,4-c]pyridin-5-yl)amino]-1-methyl-6-oxo-3-pyridyl]-3-(hydroxymethyl)-2-pyridyl]-7,7-dimethyl-1,2,6,8-tetrahydrocyclopenta[3,4]pyrrolo[3,5-b]pyrazin-4-one] | 1400 nM | – |
| Cn1cc(-c2ccnc(-n3ncc4c5c(sc4c3=O)CCCC5)c2CO)cc(Nc2cnccn2)c1=O [Example 194, 3-[3-(hydroxymethyl)-4-[1-methyl-6-oxo-5-(pyrazin-2-ylamino)-3-pyridyl]-2-pyridyl]-6,7,8,9-tetrahydrobenzothiopheno[2,3-d]pyridazin-4-one] | 1200 nM | – |
| C[C@H]1c2cc(Nc3cc(-c4ccnc(N5CCn6c(cc7c6CC(C)(C)C7)C5=O)c4CO)cn(C)c3=O)nn2CCN1C [Example 319, (S)-2-(5-((4,5-dimethyl-4,5,6,7-tetrahydropyrazolo[1,5-a]pyrazin-2-yl)amino)-3′-(hydroxymethyl)-1-methyl-6-oxo-1,6-dihydro-[3,4′-bipyridin]-2′-yl)-7,7-dimethyl-2,3,4,6,7,8-hexahydro-1H-cyclopenta[4,5]pyrrolo[1,2-a]pyrazin-1-one] | 16.7 nM | – |
| Cc1nnc(Nc2cc(-c3ccnc(N4CCn5c(cc6c5CC(C)(C)C6)C4=O)c3CO)cn(C)c2=O)s1 [Example 267, 3-[3-(hydroxymethyl)-4-[1-methyl-5-[(5-methyl-1,3,4-thiadiazol-2-yl)amino]-6-oxo-3-pyridyl]-2-pyridyl]-7,7-dimethyl-1,2,6,8-tetrahydrocyclopenta[3,4]pyrrolo[3,5-b]pyrazin-4-one] | 225 nM | – |
| CN1CCn2nc(Nc3cc(-c4ccnc(N5CCc6c(cc7n6CCCC7)C5=O)c4CO)cn(C)c3=O)cc2C1 [Example 147, 2-(3-(Hydroxymethyl)-4-(1-methyl-5-(5-methyl-4,5,6,7-tetrahydro-pyrazolo[1,5-a]pyrazin-2-ylamino)-6-oxo-1,6-dihydropyridin-3-yl)pyridin-2-yl)-3,4,6,7,8,9-hexahydropyrido[3,4-b]indolizin-1(2H)-one] | – | 320 nM |
| Cn1cc(-c2ccnc(-n3ncc4c5c(sc4c3=O)CCCC5)c2CO)cc(Nc2ccc(N3CCN(C4COC4)CC3)cn2)c1=O [Example 124, 3-Hydroxymethyl-4-[1-methyl-5-(5-(4-(oxetan-3-yl)piperazin-1-yl)pyridine-2-ylamino)-6-oxo-1,6-dihydropyridin-3-yl]-2-{6-oxo-8-thia-4,5-diazatricyclo[7.4.0.0^2,7]trideca-1(9),2(7),3-trien-5-yl}pyridine] | – | 36.2 nM |
| Cn1cc(-c2cncc(-n3ncc4c5c(sc4c3=O)CCCC5)c2CO)cc(Nc2ccc(N3CCN(C4COC4)CC3)cn2)c1=O [Example 116, 4-Hydroxymethyl-3-[1-methyl-5-({5-[4-(oxetan-3-yl)piperazin-1-yl]pyridine-2-yl}amino)-6-oxo-1,6-dihydropyridin-3-yl]-5-{6-oxo-8-thia-4,5-diazatricyclo[7.4.0.0^2,7]trideca-1(9),2(7),3-trien-5-yl}pyridine] | – | 377 nM |
| CN1CCn2nc(Nc3cc(-c4cncc(N5CCn6c(cc7c6CC(C)(C)C7)C5=O)c4CO)cn(C)c3=O)cc2C1 [Example 150, 2-[4-Hydroxymethyl-1′-methyl-5′-(5-methyl-4,5,6,7-tetrahydro-pyrazolo[1,5-a]pyrazin-2-ylamino)-6′-oxo-1′,6′-dihydro-[3,3′]bipyridinyl-5-yl]-7,7-dimethyl-3,4,7,8-tetrahydro-2H,6H-cyclopenta[4,5]pyrrolo[1,2-a]pyrazin-1-one] | – | 31.6 nM |
| CC[C@H]1CN(C2COC2)CCN1c1ccc(Nc2cc(-c3ccnc(N4CCn5c(cc6c5CC(C)(C)C6)C4=O)c3CO)cn(C)c2=O)nc1 [Example 164, 2-{5-[5-((S)-2-Ethyl-4-oxetan-3-yl-piperazin-1-yl)-pyridin-2-ylamino]-3′-hydroxymethyl-1-methyl-6-oxo-1,6-dihydro-[3,4′]bipyridinyl-2′-yl}-7,7-dimethyl-3,4,7,8-tetrahydro-2H,6H-cyclopenta[4,5]pyrrolo[1,2-a]pyrazin-1-one] | – | 29 nM |
| Cc1cc(Nc2cc(-c3ccnc(-n4ncc5c6c(sc5c4=O)CC(C)(C)C6)c3CO)cn(C)c2=O)no1 [Example 288, 3-[3-(hydroxymethyl)-4-[1-methyl-5-[(5-methylisoxazol-3-yl)amino]-6-oxo-3-pyridyl]-2-pyridyl]-7,7-dimethyl-6,8-dihydrocyclopenta[3,4]thieno[1,3-d]pyridazin-4-one] | 229 nM | – |
| COCCN1CCn2nc(Nc3cc(-c4ccnc(-n5ncc6c7c(sc6c5=O)CC(C)(C)C7)c4CO)cn(C)c3=O)cc2C1 [Example 304, 3-[3-(hydroxymethyl)-4-[5-[[5-(2-methoxyethyl)-6,7-dihydro-4H-pyrazolo[1,5-a]pyrazin-2-yl]amino]-1-methyl-6-oxo-3-pyridyl]-2-pyridyl]-7,7-dimethyl-6,8-dihydrocyclopenta[3,4]thieno[1,3-d]pyridazin-4-one] | 40 nM | – |
| Cn1cc(-c2ccnc(N3CCn4c(cc5c4CCCC5)C3=O)c2CO)cc(Nc2cc3n(n2)CCN(C2COC2)C3)c1=O [Example 125, 2-(3-(Hydroxymethyl)-4-(1-methyl-5-(5-(oxetan-3-yl)-4,5,6,7-tetrahydropyrazolo[1,5-a]pyrazin-2-ylamino)-6-oxo-1,6-dihydropyridin-3-yl)pyridin-2-yl)-3,4,6,7,8,9-hexahydropyrazino[1,2-a]indol-1(2H)-one] | – | 87.3 nM |
| Cn1cc(-c2ccnc(-n3ncc4c5c(sc4c3=O)CC(C)(C)C5)c2CO)cc(Nc2cc3n(n2)CC(C)(C)OC3)c1=O [Example 335, 3-[4-[5-[(6,6-dimethyl-4,7-dihydropyrazolo[5,1-c][1,4]oxazin-2-yl)amino]-1-methyl-6-oxo-3-pyridyl]-3-(hydroxymethyl)-2-pyridyl]-7,7-dimethyl-6,8-dihydrocyclopenta[3,4]thieno[1,3-d]pyridazin-4-one] | 52.8 nM | – |
| CN1CCn2nc(Nc3cc(-c4ccnc(N5CCn6c(cc7c6[C@@H]6CC[C@H]7C6)C5=O)c4CO)cn(C)c3=O)cc2C1 (stereo in doubt) [Example 170, 2-(3-(hydroxymethyl)-4-(1-methyl-5-(5-methyl-4,5,6,7-tetrahydropyrazolo[1,5-a]pyrazin-2-ylamino)-6-oxo-1,6-dihydropyridin-3-yl)pyridin-2-yl)-3,4,6,7,8,9-hexahydro-6,9-methanopyrazino[1,2-a]indol-1(2H)-one] | – | 335 nM |
